# Results published in patent EP1967187A1, “Composition based on rutin and L-lysine” (Ennamany, Rachid, priority 2007, dated 2008).
# Molecular target: T1, arginase Th2-dépendante (Homo sapiens, UniProt P05089)
# T1 sequence (P05089 1-322): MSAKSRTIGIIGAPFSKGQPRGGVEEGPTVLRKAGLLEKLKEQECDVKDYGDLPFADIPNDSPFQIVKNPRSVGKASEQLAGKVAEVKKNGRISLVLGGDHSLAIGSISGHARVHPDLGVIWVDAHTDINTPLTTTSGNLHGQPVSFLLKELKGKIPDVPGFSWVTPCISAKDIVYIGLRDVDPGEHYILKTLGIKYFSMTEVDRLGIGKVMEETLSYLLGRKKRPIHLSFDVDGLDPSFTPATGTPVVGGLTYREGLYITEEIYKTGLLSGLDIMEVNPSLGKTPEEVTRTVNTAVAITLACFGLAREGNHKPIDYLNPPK
# Assay: Inhibition of Th2-dependent arginase
# Type: biochemical
structure (smiles),measurement,value
"NCCCC[C@H](N)C(=O)O [L-Lysine, L-lysine]",action sur l'arginase Th2-dépendante,action inhibitrice
